The values that follow come from US11155517B2, “4-substituted phenylamine derivatives and their use to protect crops by fighting undesired phytopathogenic micoorganisms” (PI INDUSTRIES LTD., priority 2016, dated 2021).

In test [1] the test system is Fusarium culmorum. The test is described as follows: Greenhouse Fusarium culmorum test in wheat, preventive. It counts as in vivo. The following applies: 24 h, read-out: Efficacy (% control), disease severity vs untreated check. The method, then:
Compounds were dissolved in 2% DMSO/Acetone & then mixed with water to calibrated spray volume of 50 ml. This 50 ml spray solution was poured into the spray bottles for further applications.
To test the preventive activity of compounds, healthy young wheat plants raised in the greenhouse were sprayed with active compound preparation at the stated application rates inside the spray cabinets using hallowcone nozzles. One day after treatment, the plants were inoculated with spore suspension (2% Malt) containing 2×10^6 Fusarium culmorum inoculum. The inoculated plants were then kept in greenhouse chamber at 24° C. temperature and 80-90% relative humidity for disease expression.
A visual assessment of compound's performance was carried by rating the disease severity (0-100% scale) on treated plants on 3, 7, 10 and 15 days after application. Efficacy (% control) of the compounds was calculated by comparing the disease rating in the treatment with untreated control. The sprayed plants were also assessed for compound's phytotoxic effects by recording symptoms like necrosis, chlorosis and stunting.

The subject of another test is Alternaria solani. The test is described as follows: Alternaria solani (early blight of tomato/potato) in vitro test, radial growth on Potato Dextrose Agar. It is filed as cell-based. The following applies: 168 h, 300 ppm, seven days, 25° C., read-out: % control compared to the untreated check (radial growth).
For a further test, the system named is Botrytis cinerea. Description: Botrytis cinerea (gray mold) in vitro test, radial growth on Potato Dextrose Agar. It counts as cell-based. The following applies: 168 h, 300 ppm, seven days, 22° C., read-out: % (control) compared to the untreated check (radial growth).
The subject of test [2] is Fusarium culmorum. Description: Fusarium culmorum (foot rot of cereals) in vitro test, radial growth on Potato Dextrose Agar. It is filed as cell-based. The following applies: Fusarium culmorum, 168 h, read-out: % control compared to the untreated check (radial growth).
In the next test the test system is Pyricularia oryzae. Description: microbe, parasite or virus in culture. It is filed as cell-based. The following applies: 168 h, read-out: % control compared to the untreated check (radial growth).
Another test has as its system Rhizoctonia solani. The test is described as follows: Rhizoctonia solani (rice sheath blight/potato black scurf) in vitro test, radial growth on Potato Dextrose Agar. It is filed as cell-based. As to conditions: 168 h, 300 ppm, seven days, 25° C., read-out: % control compared to the untreated check (radial growth).
In the next test the test system is Colletotrichum capsici. Description: Colletotrichum capsici (anthracnose) in vitro test, radial growth on Potato Dextrose Agar. It is filed as cell-based. The following applies: Colletotrichum truncatum, 168 h; 300 ppm; seven days, 25° C.; read-out: % control compared to the untreated check (radial growth).
A further test deals with Septoria lycopersici. Description: Septoria lycopersici (leaf spot of tomato) in vitro test, radial growth on Potato Dextrose Agar. It is filed as cell-based. The following applies: 168 h, seven days, 25° C., read-out: % control compared to the untreated check (radial growth).
Another test concerns Botrytis cinera. Description: Greenhouse Botrytis cinera test in tomato, preventive. It counts as in vivo. As to conditions: 24 h, plants sprayed one day before inoculation, read-out: Efficacy (% control), disease severity vs untreated check.

Take `CCN(C)C=Nc1cc(C)c(Cc2ccc(F)cc2)cc1Cl` [Compound 76, N′-(2-chloro-4-(4-fluorobenzyl)-5-methylphenyl)-N-ethyl-N-methylformimidamide]: the pest or weed control at 500 ppm in the test with Fusarium culmorum [1] was in the range of 70 to 100%. The inhibition of growth at 300 ppm is over 75% with Alternaria solani; over 80% with Botrytis cinerea; 75% in the test with Fusarium culmorum [2]; over 75% with Pyricularia oryzae; over 80% in the test on Rhizoctonia solani; over 80% in the test with Colletotrichum capsici.
Take `CCN(C)C=Nc1cc(F)c(Cc2cccc(F)c2)cc1C` [Compound 172, N-ethyl-N′-(5-fluoro-4-(3-fluorobenzyl)-2-methylphenyl)-N-methylformimidamide]: the pest or weed control at 500 ppm with Fusarium culmorum [1] lay in the range of 70 to 100%. Besides, the inhibition of growth at 300 ppm with Septoria lycopersici is over 70%; with Alternaria solani it was over 75%; with Botrytis cinerea, over 80%; with Fusarium culmorum [2], 75%; in the test on Pyricularia oryzae, over 75%; in the test with Rhizoctonia solani, over 80%. For the same molecule, the inhibition of growth at 300 ppm in the test with Colletotrichum capsici is over 80%.
`CCN(C)C=Nc1cc(C)c(Cc2cc(F)ccc2C)cc1C` [Compound 157, N-ethyl-N′-(4-(5-fluoro-2-methylbenzyl)-2,5-dimethylphenyl)-N-methylformimidamide]: in the test with Fusarium culmorum [1], the pest or weed control at 500 ppm is 70 to 100%. The inhibition of growth at 300 ppm in the test with Septoria lycopersici was over 70%; in the test on Alternaria solani it was over 75%; with Botrytis cinerea, over 80%; in the test on Fusarium culmorum [2] it was 75%; in the test with Pyricularia oryzae it was over 75%; in the test with Rhizoctonia solani it was over 80%. Besides, the inhibition of growth at 300 ppm with Colletotrichum capsici is over 80%.
For `Cc1cc(N=CN(C)C(C)C)c(C)cc1Cc1ccccc1F` [Compound 81, N′-(4-(2-fluorobenzyl)-2,5-dimethylphenyl)-N-isopropyl-N-methylformimidamide], the pest or weed control at 500 ppm with Fusarium culmorum [1] lay in the range of 70 to 100%. The inhibition of growth at 300 ppm in the test on Septoria lycopersici is over 70%; with Alternaria solani, over 75%; with Botrytis cinerea, over 80%; with Fusarium culmorum [2], 75%; in the test on Pyricularia oryzae it was over 75%; in the test with Rhizoctonia solani, over 80%. The inhibition of growth at 300 ppm with Colletotrichum capsici is over 80%.
As for `CCN(C)C=Nc1cc(C)c(Cc2ccc(Cl)c(C(F)(F)F)c2)cc1Cl` [Compound 136, N′-(2-chloro-4-(4-chloro-3-(trifluoromethyl)benzyl)-5-methylphenyl)-N-ethyl-N-methylformimidamide], the pest or weed control at 500 ppm in the test on Fusarium culmorum [1] lay in the range of 70 to 100%. Besides, the inhibition of growth at 300 ppm with Alternaria solani is over 75%; in the test on Botrytis cinerea, over 80%; in the test on Fusarium culmorum [2] it was 75%; in the test on Pyricularia oryzae, over 75%; in the test with Rhizoctonia solani it was over 80%; in the test with Colletotrichum capsici, over 80%.
Consider `CCN(C)C=Nc1cc(C)c(Cc2ccc(F)cc2)cc1C` [Compound 57, N-ethyl-N′-(4-(4-fluorobenzyl)-2,5-dimethylphenyl)-N-methylformimidamide], for which, in the test with Fusarium culmorum [1], the pest or weed control at 500 ppm fell in the range of 70 to 100%. Further, the inhibition of growth at 300 ppm with Septoria lycopersici is over 70%; in the test with Alternaria solani, over 75%; with Botrytis cinerea, over 80%; with Fusarium culmorum [2] it was 75%; in the test on Pyricularia oryzae, over 75%; with Rhizoctonia solani, over 80%. In addition, the inhibition of growth at 300 ppm in the test on Colletotrichum capsici is over 80%.
As for `CCN(C)C=Nc1cc(C)c(Cc2ccc(SC(F)(F)F)cc2)cc1Cl` [Compound 77, N′-(2-chloro-5-methyl-4-(4-((trifluoromethyl)thio)benzyl)phenyl)-N-ethyl-N-methylformimidamide], the pest or weed control at 500 ppm with Fusarium culmorum [1] lay in the range of 70 to 100%. Besides, the inhibition of growth at 300 ppm in the test on Alternaria solani is over 75%; with Botrytis cinerea it was over 80%; with Fusarium culmorum [2], 75%; in the test on Pyricularia oryzae it was over 75%; with Rhizoctonia solani, over 80%.
For the molecule `CCN(C)C=Nc1cc(C)c(Cc2cccc(F)c2)cc1Cl` [Compound 30, N′-(2-chloro-4-(3-fluorobenzyl)-5-methylphenyl)-N-ethyl-N-methylformimidamide], the pest or weed control at 500 ppm in the test with Fusarium culmorum [1] lay in the range of 70 to 100%. Also, the inhibition of growth at 300 ppm is over 70% in the test with Septoria lycopersici; over 75% in the test on Alternaria solani; over 80% with Botrytis cinerea; 75% with Fusarium culmorum [2]; over 75% with Pyricularia oryzae; over 80% in the test with Rhizoctonia solani. The inhibition of growth at 300 ppm with Colletotrichum capsici was over 80%.
In the case of `CCN(C)C=Nc1cc(C)c(Cc2ccccc2[N+](=O)[O-])cc1Cl` [Compound 75, N′-(2-chloro-5-methyl-4-(2-nitrobenzyl)phenyl)-N-ethyl-N-methylformimidamide], the pest or weed control at 500 ppm in the test with Fusarium culmorum [1] was in the range of 70 to 100%. Besides, the inhibition of growth at 300 ppm in the test on Alternaria solani was over 75%; in the test on Botrytis cinerea it was over 80%; with Fusarium culmorum [2], 75%; in the test with Pyricularia oryzae, over 75%; with Rhizoctonia solani, over 80%; with Colletotrichum capsici, over 80%.
On to `CCN(C)C=Nc1cc(C)c(Cc2ccc(S(C)(=O)=O)cc2)cc1C` [Compound 12, N′-(2,5-dimethyl-4-(4-(methylsulfonyl)benzyl)phenyl)-N-ethyl-N-methylformimidamide], for which the pest or weed control at 500 ppm with Fusarium culmorum [1] and with Botrytis cinera was 70 to 100% in each case. Besides, the inhibition of growth at 300 ppm in the test on Alternaria solani and in the test on Pyricularia oryzae was over 75% in each case.
`CCN(C)C=Nc1cc(C)c(C2(c3ccccc3)SCCS2)cc1C` [Compound 33, N′-(2,5-dimethyl-4-(2-phenyl-1,3-dithiolan-2-yl)phenyl)-N-ethyl-N-methylformimidamide]: the pest or weed control at 500 ppm with Fusarium culmorum [1] was in the range of 70 to 100%. For the same molecule, the inhibition of growth at 300 ppm in the test on Septoria lycopersici was over 70%; in the test on Alternaria solani, over 75%; in the test on Pyricularia oryzae, over 75%; in the test with Rhizoctonia solani, over 80%.
Consider `CCN(C)C=Nc1cc(C)c(Cc2cccc(Br)c2)cc1Cl` [Compound 13, N′-(4-(3-bromobenzyl)-2-chloro-5-methylphenyl)-N-ethyl-N-methylformimidamide], for which the pest or weed control at 500 ppm in the test with Fusarium culmorum [1] and in the test with Botrytis cinera was 70 to 100% throughout. The inhibition of growth at 300 ppm in the test with Septoria lycopersici was over 70%; with Alternaria solani, over 75%; in the test on Botrytis cinerea, over 80%; in the test with Pyricularia oryzae, over 75%; in the test on Rhizoctonia solani, over 80%; with Colletotrichum capsici it was over 80%.
As for `CCN(C)C=Nc1cc(C)c(Cc2ccc(C(F)(F)F)cc2)cc1Cl` [Compound 101, N′-(2-chloro-5-methyl-4-(4-(trifluoromethyl)benzyl)phenyl)-N-ethyl-N-methylformimidamide], the pest or weed control at 500 ppm in the test on Fusarium culmorum [1] and in the test on Botrytis cinera was 70 to 100% throughout. In addition, the inhibition of growth at 300 ppm with Alternaria solani was over 75%; in the test with Botrytis cinerea it was over 80%; with Pyricularia oryzae, over 75%; with Rhizoctonia solani it was over 80%.
